System: PHA-stimulated lymphocytes
Assay: Mixed lymphocyte culture of PHA-stimulated lymphocytes and TAIC, 3[H]-thymidine incorporation
Format: cell-based, human
Conditions: 2 μmol 1-MT
Method: In order to clarify, whether the inhibitor of the enzyme indolamine-2,3-dioxygenase (IDO) 1-methyltryptophane (1-MT) influences the suppressor function of the TAIC generated in the “Mo” and “Mo+Ly” set ups (see Example 11), a variety of mixed lymphocyte cultures (MLC) with PHA (phytohaemagglutinine) stimulated T-cells in the presence and in the absence of 1-MT were established.
In these mixed lymphocyte cultures 50.000 lymphocytes with 2 μg […] were transferred into the wells of a 96-well-plate, followed by a proliferation period over 144 hours (indicated as “PhaLy”). Lymphocytes only cultivated in medium without addition of PHA were run as a further control (indicated as “Ly”).
In order to determine the proliferation of PHA-stimulated lymphocytes in the different co-cultures, the following 4 set ups were run and examined:
In this arrangement, the amount of the radio activity determined is a measure for the amount of labeled thymidine incorporated into the DNA, and therefore a measure for the proliferation rate of the lymphocytes. The values reported in FIG. 8 correspond to mean values from triple determinations of 3 experiments each with indication of the standard deviation.

`Cn1cc(C[C@H](N)C(=O)O)c2ccccc21` [1-MT, 1-methyltryptophane] was tested, and the “influence on the suppressor function of the TAIC” value was “increases the suppressor function of the TAIC synergistically”.
